pIC50: −log10 of the molar value.
Target: E3 ubiquitin-protein ligase Mdm2 (Homo sapiens, UniProt Q00987)
Assay: Displacement of Ac-Phe-Arg-Dpr(fluorophore)-Ac6c-(6-Br)Trp-Glu-Glu-Leu-NH2 from human N-terminal His6-tagged MDM2 (17 to 125 residues) expressed in Escherichia coli by fluorescence polarization assay

Chain of E3 ubiquitin-protein ligase Mdm2 (Q00987 whole entry, the tested form may be a part): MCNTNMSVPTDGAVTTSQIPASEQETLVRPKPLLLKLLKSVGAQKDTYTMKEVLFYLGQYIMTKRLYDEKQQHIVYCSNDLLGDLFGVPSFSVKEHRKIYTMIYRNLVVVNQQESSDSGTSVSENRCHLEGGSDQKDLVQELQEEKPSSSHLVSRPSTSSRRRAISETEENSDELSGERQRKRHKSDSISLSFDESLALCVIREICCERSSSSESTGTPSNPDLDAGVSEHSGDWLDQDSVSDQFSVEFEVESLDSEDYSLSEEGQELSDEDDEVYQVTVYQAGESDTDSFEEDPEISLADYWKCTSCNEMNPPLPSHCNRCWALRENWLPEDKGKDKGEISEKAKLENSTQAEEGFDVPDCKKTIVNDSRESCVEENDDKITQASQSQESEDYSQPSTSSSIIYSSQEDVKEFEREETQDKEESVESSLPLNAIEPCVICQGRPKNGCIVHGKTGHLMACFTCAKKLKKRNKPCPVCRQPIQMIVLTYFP

Structure (SMILES): O=C(c1cnccc1C(F)(F)F)N1CCCC(Oc2ccc(C(F)(F)F)cc2)(C(=O)N2CCN(c3ccccn3)CC2)C1 (stereo unspecified)
- pIC50: 5.64
